Experimental data: US12383545B1, “Treatment of migraine” (priority 2018, dated 2025)

Legend:
Format in all cases: in vivo, human
[1] = test system: participants with episodic migraine; assay: Study A: adverse events (safety population); settings: for Deaths, n (%) / TEAE Constipation, n (%) / TEAE Fatigue, n (%) / TEAE Gastroenteritis, n (%) / TEAE Influenza, n (%) / TEAE Nasopharyngitis, n (%) / TEAE Nausea, n (%) / TEAE Sinus Congestion, n (%) / TEAE Sinusitis, n (%) / TEAE Somnolence, n (%) / TEAE Upper Respiratory Tract Infection, n (%) / TEAE Urinary Tract Infection, n (%): Study A, safety population
Protocol: (§1) Adverse events were reported by participants throughout the trial, and at a 4-week follow-up visit. Adverse event information was collected and documented during each clinic visit. Participants could also report adverse events via telephone call between visits. Causality of each adverse event was determined by the investigator who was blinded to the treatment. In addition, clinical laboratory tests, vital signs, electrocardiograms (ECG), and Columbia-Suicide Severity Rating Scale were evaluated. Based on the potential hepatotoxicity of prior gepants, treatment-emergent elevations in ALT or AST ≥3 times the upper limit of normal, as well as potential Hy's law cases, were evaluated as prespecified adverse events of special interest and were reviewed by an independent panel of liver experts blinded to treatment (see, e.g., Negro A et al., CGRP Receptor Antagonists: an expanding drug class for acute migraine? Expert Opin Investig Drugs 2012; 21:807-18; Messina R et al., CGRP—a target for acute therapy in migraine: Clinical Data. Cephalalgia 2019; 39:420-7).
Safety population included all randomized participants who took at least 1 dose of trial treatment. Participants are only counted once within each category. Percentages are calculated at 100×(n/N), where n is the number of participants within a specific category and N is the number of participants in the safety population for the treatment group. Adverse events are listed in decreasing order based on frequency reported in the overall population.

ALT or AST [2] = assay: Study A: postbaseline hepatic laboratory parameters (ALT or AST, potential Hy's Law); settings: safety population; for ALT or AST >=1 * ULN, n/N1 (%) / ALT or AST >=1.5 * ULN, n/N1 (%) / ALT or AST >=2 * ULN, n/N1 (%) / ALT or AST >=5 * ULN, n/N1 (%) / ALT or AST >=10 * ULN, n/N1 (%) / ALT or AST >=20 * ULN, n/N1: postbaseline
Protocol: as §1
There were no hepatic safety issues identified in this trial. ALT and/or AST increases were low across all atogepant doses and occurred at a lower rate than placebo. […] No cases of liver disease were reported, and no case met the criteria for potential Hy's Law following daily dosing for 12 weeks.

ALT or AST [3] = assay: Study B: postbaseline hepatic laboratory parameters (ALT or AST, potential Hy's Law); settings: atogepant 60 mg QD or standard of care, safety population
Description: Cases of alanine aminotransferase/aspartate aminotransferase (ALT/AST) levels ≥3 times the upper limit of normal were reported for 2.4% of participants (n=13/531) treated with atogepant and 3.2% for standard-of-care (n=6/190). No cases of potential Hy's Law were reported. Table 24 provides postbaseline hepatic laboratory parameter values of clinical interest for the safety population.

C[C@@H]1[C@H](c2c(F)ccc(F)c2F)C[C@H](NC(=O)c2cnc3c(c2)C[C@@]2(C3)C(=O)Nc3ncccc32)C(=O)N1CC(F)(F)F [atogepant]
Deaths, n (%) ([1]; 10 mg QD): (0.0) % | TEAE Constipation, n (%) ([1]; 10 mg QD): (7.7) % | TEAE Fatigue, n (%) ([1]; 10 mg QD): (1.4) % | TEAE Gastroenteritis, n (%) ([1]; 10 mg QD): (0.9) % | TEAE Influenza, n (%) ([1]; 10 mg QD): (1.4) % | TEAE Nasopharyngitis, n (%) ([1]; 10 mg QD): (1.8) % | TEAE Nausea, n (%) ([1]; 10 mg QD): (5.0) % | TEAE Sinus Congestion, n (%) ([1]; 10 mg QD): (0.5) % | TEAE Sinusitis, n (%) ([1]; 10 mg QD): (1.8) % | TEAE Somnolence, n (%) ([1]; 10 mg QD): (3.2) % | TEAE Upper Respiratory Tract Infection, n (%) ([1]; 10 mg QD): (4.1) % | TEAE Urinary Tract Infection, n (%) ([1]; 10 mg QD): (1.4) % | Deaths, n (%) ([1]; 30 mg QD): (0.0) % | TEAE Constipation, n (%) ([1]; 30 mg QD): (7.0) % | TEAE Fatigue, n (%) ([1]; 30 mg QD): (3.1) % | TEAE Gastroenteritis, n (%) ([1]; 30 mg QD): (2.2) % | TEAE Influenza, n (%) ([1]; 30 mg QD): (0.9) % | TEAE Nasopharyngitis, n (%) ([1]; 30 mg QD): (3.5) % | TEAE Nausea, n (%) ([1]; 30 mg QD): (4.4) % | TEAE Sinus Congestion, n (%) ([1]; 30 mg QD): (0.9) % | TEAE Sinusitis, n (%) ([1]; 30 mg QD): (1.3) % | TEAE Somnolence, n (%) ([1]; 30 mg QD): (1.8) % | TEAE Upper Respiratory Tract Infection, n (%) ([1]; 30 mg QD): (5.7) % | TEAE Urinary Tract Infection, n (%) ([1]; 30 mg QD): (3.9) % | Deaths, n (%) ([1]; 60 mg QD): (0.0) % | TEAE Constipation, n (%) ([1]; 60 mg QD): (6.9) % | TEAE Fatigue, n (%) ([1]; 60 mg QD): (3.9) % | TEAE Gastroenteritis, n (%) ([1]; 60 mg QD): (1.3) % | TEAE Influenza, n (%) ([1]; 60 mg QD): (2.2) % | TEAE Nasopharyngitis, n (%) ([1]; 60 mg QD): (3.5) % | TEAE Nausea, n (%) ([1]; 60 mg QD): (6.1) % | TEAE Sinus Congestion, n (%) ([1]; 60 mg QD): (1.7) % | TEAE Sinusitis, n (%) ([1]; 60 mg QD): (2.2) % | TEAE Somnolence, n (%) ([1]; 60 mg QD): (1.7) % | TEAE Upper Respiratory Tract Infection, n (%) ([1]; 60 mg QD): (3.9) % | TEAE Urinary Tract Infection, n (%) ([1]; 60 mg QD): (3.9) % | cases of constipation mild in severity ([1]; human, in vivo, 12 weeks): 71.4% | cases of constipation moderate in severity ([1]; human, in vivo, 12 weeks): 26.5% | cases of nausea mild in severity ([1]; human, in vivo, 12 weeks): 77.1% | cases of nausea moderate in severity ([1]; human, in vivo, 12 weeks): 22.9% | frequency of upper respiratory tract infection ([1]; human, in vivo, 12 weeks): 3.9-5.7% | ALT or AST >=1 * ULN, n/N1 (%) (ALT or AST [2]; 10 mg QD): (8.6) % | ALT or AST >=1.5 * ULN, n/N1 (%) (ALT or AST [2]; 10 mg QD): (1.4) % | ALT or AST >=2 * ULN, n/N1 (%) (ALT or AST [2]; 10 mg QD): (0.9) % | ALT or AST >=5 * ULN, n/N1 (%) (ALT or AST [2]; 10 mg QD): (0.5) % | ALT or AST >=10 * ULN, n/N1 (%) (ALT or AST [2]; 10 mg QD): (0.5) % | ALT or AST >=20 * ULN, n/N1 (ALT or AST [2]; 10 mg QD): 0 | Potential Hy's Law (ALT or AST >= 3 * ULN AND Bilirubin Total >= 2 * ULN AND ALP < 2 * ULN), n/N1 (ALT or AST [2]; 10 mg QD): 0 | ALT or AST >=1 * ULN, n/N1 (%) (ALT or AST [2]; 30 mg QD): (8.0) % | ALT or AST >=1.5 * ULN, n/N1 (%) (ALT or AST [2]; 30 mg QD): (3.1) % | ALT or AST >=2 * ULN, n/N1 (%) (ALT or AST [2]; 30 mg QD): (0.9) % | ALT or AST >=5 * ULN, n/N1 (%) (ALT or AST [2]; 30 mg QD): (0.4) % | ALT or AST >=10 * ULN, n/N1 (%) (ALT or AST [2]; 30 mg QD): 0% | ALT or AST >=20 * ULN, n/N1 (ALT or AST [2]; 30 mg QD): 0 | Potential Hy's Law (ALT or AST >= 3 * ULN AND Bilirubin Total >= 2 * ULN AND ALP < 2 * ULN), n/N1 (ALT or AST [2]; 30 mg QD): 0 | ALT or AST >=1 * ULN, n/N1 (%) (ALT or AST [2]; 60 mg QD): (12.3) % | ALT or AST >=1.5 * ULN, n/N1 (%) (ALT or AST [2]; 60 mg QD): (3.1) % | ALT or AST >=2 * ULN, n/N1 (%) (ALT or AST [2]; 60 mg QD): (1.8) % | ALT or AST >=5 * ULN, n/N1 (%) (ALT or AST [2]; 60 mg QD): (0.4) % | ALT or AST >=10 * ULN, n/N1 (%) (ALT or AST [2]; 60 mg QD): 0% | ALT or AST >=20 * ULN, n/N1 (ALT or AST [2]; 60 mg QD): 0 | Potential Hy's Law (ALT or AST >= 3 * ULN AND Bilirubin Total >= 2 * ULN AND ALP < 2 * ULN), n/N1 (ALT or AST [2]; 60 mg QD): 0 | Potential Hy's Law (ALT or AST ≥ 3 × ULN and Bilirubin Total ≥ 2 × ULN and ALP < 2 × ULN), n/N1 (%) (ALT or AST [3]): (0.0) % | ALT or AST ≥1 × ULN, n/N1 (%) (ALT or AST [3]; postbaseline): (21.1) % | ALT or AST ≥1.5 × ULN, n/N1 (%) (ALT or AST [3]; postbaseline): (8.7) % | ALT or AST ≥2 × ULN, n/N1 (%) (ALT or AST [3]; postbaseline): (4.9) % | ALT or AST ≥3 × ULN, n/N1 (%) (ALT or AST [3]; postbaseline): 2.4% | ALT or AST ≥5 × ULN, n/N1 (%) (ALT or AST [3]; postbaseline): (1.3) % | ALT or AST ≥10 × ULN, n/N1 (%) (ALT or AST [3]; postbaseline): (0.6) % | ALT or AST ≥20 × ULN, n/N1 (%) (ALT or AST [3]; postbaseline): (0.0) % | ALT or AST ≥3 × ULN, n/N1 (%) (ALT or AST [3]; postbaseline, listed as Atogepant): (2.4) %
